One assay concerns the target B*3501 (Homo sapiens, UniProt P01889, A329T/A93T/A95T/C349S/D201E/D98Y/E176V/E187L/E204Q/E69T/I218V/K202T/L119I/Q94N/R155S/R180L/S121R/S35A/S48A/T118I/V127L/V306I/V36M/Y140S/Y91F). The experiment in a line: biochemical.
For a further assay, the target named is B*5301 (Homo sapiens, UniProt P01889, A329T/A93T/A95T/C349S/D201E/D98Y/E176V/E187L/E204Q/E69T/G107R/I218V/K202T/L105A/L119I/N104I/Q94N/R106L/R155S/R180L/S101N/S121R/S35A/S48A/T118I/V127L/V306I/V36M/Y140S/Y91F). As to the kind of experiment: biochemical.
In assay [1] the test system is peptide-coated Jurkat A2/Kb target cells. Also noted: species or system mice. To be noted: mouse, in vivo.
Another assay deals with A2.1 HLA molecules (Homo sapiens, UniProt P04439, D140Y/D185E/D98H/E176V/E277Q/G131W/G231S/I119V/I121R/I166T/I218V/L300P/L318F/N151K/N90K/P208A/P217A/Q86G/Q94H/R138H/R169H/T345S). The format is binding. Also noted: A*0201 / A2.1 Binding / A2 Bind. / A2 / A2.1 (binding capacity): scale not given here.
Another assay addresses B*0701 (Homo sapiens, UniProt P01889). The experiment in a line: biochemical.
Another assay has as its target HLA-A*0201 (HLA-A2.1) (Homo sapiens, UniProt P04439, D140Y/D185E/D98H/E176V/E277Q/G131W/G231S/I119V/I121R/I166T/I218V/L300P/L318F/N151K/N90K/P208A/P217A/Q86G/Q94H/R138H/R169H/T345S). The experiment in a line: biochemical. It counts as binding.
The target in the next assay is HLA-A1 (A*0101) (Homo sapiens, UniProt P04439, A114D/A174V/A182V/D101N/D185E/E176A/E190D/L180R/Q94H/R68K/S129P/T187R/V100A/V91M/W191G). As to the kind of experiment: biochemical. It counts as binding.
In a further assay the target is A*2601 (Homo sapiens, UniProt P04439, A114D/A173T/A270S/D101N/D185E/E277Q/E87N/F33Y/G231S/I121R/I218V/K168Q/L180W/L300P/L318F/P208A/P217A/Q86R/Q94H/R138Q/S129P/T187R/T323A/T345S/V100A/V358M). The experiment in a line: biochemical. It counts as binding.
In a further assay the target is A*2902 (Homo sapiens, UniProt P04439, A270S/D101N/D185E/E176V/E277Q/E87Q/F33T/G231S/H175R/I121M/I218V/I322F/K168Q/L300P/L318F/M331R/P208A/P217A/Q86L/T323A/T345S/V100A/V358M). As to the kind of experiment: biochemical. It counts as binding.
Another assay deals with A*3002 (Homo sapiens, UniProt P04439, D101N/D140H/D185E/E176R/F33S/G80R/H175R/K168Q/Q94H/R138E/R41S/V100E). As to the kind of experiment: biochemical. It counts as binding.
The next assay concerns the target B*5401 (Homo sapiens, UniProt P01889, A329T/C349S/D138N/D201E/E176V/E187T/E204Q/E69G/I76V/K202T/L119W/R155S/R180L/S121T/S35A/S48A/V127L/V306I/V36M/Y140L). The experiment in a line: biochemical.
[2] abbreviates: B*0701 (nM), Binding of peptides to B7-like supermotif alleles, Table 36.

“Also recorded” adds a separate entry of the source. Where two headings read alike, the source gives them in different places. Marks after values point to notes of the source that are not given here. No end group written: not given here. Where only a bound is given, the exact number is not on record here.

Turning to EPIVGAETFY [15.271], on B*3501, the midpoint of inhibition, the IC50, lay at 9000 nM.

Take TPVNSQLGNI [15.246]: the IC50 – broadly, the concentration that inhibits the measured activity by half – against B*5301 was 16900 nM.

As to E7.11/1088.04 (YMLDLQPET), in assay [1], the “Immunogenicity Experiment 1” value is 5.0 (3.70) Lytic Units and the “Immunogenicity Experiment 2” value is recorded as 2.6 (15.5) Lytic Units. In addition, in the assay with A2.1 HLA molecules, the A2.1 Binding is given as 0.14.

For E7.86/1088.01 (TLGIVCPI), in assay [1], the “Immunogenicity Experiment 1” value is reported as 94.4 (1.34) Lytic Units and the “Immunogenicity Experiment 2” value is listed as 54.2 (1.43)* Lytic Units. Moreover, the A2.1 Binding with A2.1 HLA molecules is 0.15.

For the compound WPLYGNEGL [15.041], the IC50 amounted to 859 nM on B*0701 (setting [2]) and 6890 nM at B*5301 (B*5301 (nM)).

Consider LLMGTLGIV, for which the “CTL response in HLA-A2.1 transgenic mice” value in assay [1] is recorded as “most immunogenic”.

As for E7.12/1088.09 (MLDLQPETT), in assay [1], the “Immunogenicity Experiment 1” value is “— (key: —: a dash indicates _Lytic Units with a geometric mean ≦0.2)” and the “Immunogenicity Experiment 2” value is reported as “— (key: —: a dash indicates _Lytic Units with a geometric mean ≦0.2)”. Moreover, the A2.1 Binding with A2.1 HLA molecules was determined as 0.0028.

As for YMLDLQPETT, the “CTL response in HLA-A2.1 transgenic mice” value in assay [1] was “most immunogenic”.

For the compound EPIVGAETF [15.091], at B*5301 (B*5301 (nM)), the IC50 came out at 4770 nM.

With `CC[C@H](C)[C@H](NC(=O)[C@H](CC(C)C)NC(=O)[C@H](C)NC(=O)[C@H](CCCNC(=N)N)NC(=O)[C@@H]1CCCN1C(=O)CN)C(=O)N[C@@H](CCC(=O)O)C(=O)N[C@H](C(=O)N[C@@H](CO)C(=O)N[C@@H](Cc1ccc(O)cc1)C(=O)O)[C@@H](C)O` [15.288], the IC50 was 6750 nM at B*0701 (B*0701 (nM), binding of B7-like supermotif 10-mer peptides to purified HLA-B*0701) and 24000 nM against B*3501.

RPQVPLRPM [15.067]: the IC50 turned out to be 3.3 nM on B*0701 (setting [2]) and 5760 nM at B*3501.

Take `CC[C@H](C)[C@H](NC(=O)[C@H](Cc1ccc(O)cc1)NC(=O)[C@H](CC(C)C)NC(=O)[C@H](Cc1c[nH]cn1)NC(=O)CNC(=O)[C@@H](NC(=O)[C@@H]1CCCN1C(=O)[C@@H](N)CC(=O)O)[C@@H](C)CC)C(=O)N[C@@H](Cc1ccccc1)C(=O)O` [15.138]: the half-inhibitory concentration (IC50) against B*5301 (B*5301 (nM)) worked out at 2550 nM.

For TLGIVXPI, the “change of binding affinity for all A2 alleles versus parent” value on HLA-A*0201 (HLA-A2.1) is recorded as “greatly increased”. In [1], the “crossreactivity of induced CTLs with wild type sequence” value is “fully crossreactive with the wild type sequence” and the “immunogenicity in A2/Kb transgenic mice versus wild type peptide” value is on record as “more potent immunogen”.

On to “E6.5211088.05 (FAFRDLCIV) [Peptide E6.5211088.05]”, for which the “Immunogenicity Experiment 1” value in assay [1] is reported as “— (key: —: a dash indicates _Lytic Units with a geometric mean ≦0.2)”. Besides, the A2.1 Binding in the assay with A2.1 HLA molecules is 0.057.

The compound EPQNEIPVDL [15.279] returned a half-maximal inhibitory concentration (IC50) against B*3501 of 16000 nM.

The compound `CC(C)C[C@H](NC(=O)[C@@H]1CCCN1C(=O)[C@H](Cc1c[nH]c2ccccc12)NC(=O)[C@@H]1CCCN1C(=O)[C@H](Cc1ccc(O)cc1)NC(=O)CNC(=O)[C@@H]1CCCN1C(=O)[C@@H](N)CCC(N)=O)C(=O)N[C@@H](Cc1ccc(O)cc1)C(=O)O` [15.040] gave an IC50 at B*3501 of 6550 nM.

As to `CC[C@H](C)[C@H](NC(=O)[C@@H]1CCCN1C(=O)[C@H](CC(=O)O)NC(=O)[C@@H](NC(=O)[C@H](CCC(=O)O)NC(=O)[C@@H](N)CCSC)C(C)C)C(=O)NCC(=O)N[C@@H](Cc1c[nH]cn1)C(=O)N[C@@H](CC(C)C)C(=O)N[C@@H](Cc1ccc(O)cc1)C(=O)O` [Peptide 1461.06], the IC50 at HLA-A1 (A*0101) came out at 371 nM; against A*2601 it was 15 nM; against A*2902, 307 nM; at A*3002, 35 nM.

Take `CC[C@H](C)[C@H](NC(=O)[C@@H](NC(=O)[C@H](Cc1ccccc1)NC(=O)[C@H](CC(N)=O)NC(=O)[C@@H](NC(=O)[C@@H](NC(=O)[C@H](CS)NC(=O)[C@@H]1CCCN1C(=O)[C@@H](N)Cc1ccc(O)cc1)[C@@H](C)O)C(C)C)[C@@H](C)O)C(=O)O` [15.047]: the concentration for half-maximal inhibition (IC50) was 102 nM against B*5301 (B*5301 (nM)) and 89 nM on B*5401.

On to SPLLLSTTEQ [15.226], for which the IC50 was 21600 nM against B*0701 and 55 nM against B*5301.

Take E7.73/1088.13 (HVDIRTLED): in assay [1], the “Immunogenicity Experiment 1” value is on record as “— (key: —: a dash indicates _Lytic Units with a geometric mean ≦0.2)”. This compound came in with an A2.1 Binding in the assay with A2.1 HLA molecules of 0.

As for `CC[C@H](C)[C@H](NC(=O)[C@H](Cc1c[nH]cn1)NC(=O)[C@@H]1CCCN1C(=O)[C@@H](N)CCC(=O)O)C(=O)N[C@@H](CO)C(=O)N[C@@H](Cc1ccc(O)cc1)C(=O)N1CCC[C@H]1C(=O)N1CCC[C@H]1C(=O)N[C@@H](CC(C)C)C(=O)O` [15.117], the IC50 at B*0701 (setting [2]) was found to be 50 nM; against B*3501, 8000 nM.

Turning to DMDDLVDAEEY [Peptide 9012.0184], the IC50 on HLA-A1 (A*0101) is 428 nM; against A*2601 it was 5660 nM; on A*2902, more than 20000 nM; against A*3002, 18000 nM.

FTQENYLEY [Peptide 9012.0137]: the IC50 against HLA-A1 (A*0101) was 13 nM; at A*2601, 8 nM; on A*2902 it was 23 nM; at A*3002, 99 nM.

`CC[C@H](C)[C@H](NC(=O)[C@@H]1CCCN1C(=O)[C@@H](N)CCCCN)C(=O)N[C@H](C(=O)N[C@@H](CCC(N)=O)C(=O)N[C@@H](Cc1ccc(O)cc1)C(=O)N[C@@H](CC(=O)O)C(=O)N[C@@H](CC(N)=O)C(=O)N[C@@H](Cc1ccccc1)C(=O)O)C(C)C` [15.185]: the midpoint of inhibition against B*5301 (B*5301 (nM)), the IC50, lay at 2040 nM.

For the compound E6.29/1088.10 (TIHDIILECV), in assay [1], the “Immunogenicity Experiment 1” value is given as 22.13 (3.71) Lytic Units and the “Immunogenicity Experiment 2” value is 0.4 (3.52) Lytic Units. In the assay with A2.1 HLA molecules, this compound came in with an A2.1 Binding of 0.021.

As to TIHDIILECV, the “CTL response in HLA-A2.1 transgenic mice” value in assay [1] was “most immunogenic”.

In the case of TLGIVCPI, in [1], the “CTL response in HLA-A2.1 transgenic mice” value is given as “most immunogenic; also recorded: strongest epitope”.

With `CSCC[C@H](NC(=O)[C@H](CC(C)C)NC(=O)[C@H](C)NC(=O)[C@@H]1CCCN1C(=O)[C@@H](N)Cc1ccc(O)cc1)C(=O)N1CCC[C@H]1C(=O)N[C@@H](CC(C)C)C(=O)N[C@@H](Cc1ccc(O)cc1)C(=O)N[C@@H](C)C(=O)O` [16.008], the concentration for half-maximal inhibition (IC50) on B*0701 (setting [2]) is 524 nM; on B*5301 (B*5301 (nM)), 2580 nM; on B*5401, 0.8 nM.

On to ETVPISHLY [Peptide 9012.0132], for which the IC50 against HLA-A1 (A*0101) stood at 234 nM; against A*2601 it was 0.35 nM; on A*2902 it was 869 nM; at A*3002, 2.2 nM.

For `CC[C@H](C)[C@H](NC(=O)[C@H](Cc1ccc(O)cc1)NC(=O)[C@H](CC(C)C)NC(=O)[C@H](Cc1c[nH]cn1)NC(=O)CNC(=O)[C@@H](NC(=O)[C@@H]1CCCN1C(=O)[C@@H](N)CC(=O)O)[C@@H](C)CC)C(=O)N[C@@H](Cc1ccccc1)C(=O)N[C@@H](C)C(=O)O` [16.201], the IC50 at B*5301 (B*5301 (nM)) came to 20700 nM; at B*5401, 359 nM.

Consider “E7.711088.07 (TLHEYMLDL) [Peptide E7.711088.07]”, for which the “Immunogenicity Experiment 1” value in assay [1] was “— (key: —: a dash indicates _Lytic Units with a geometric mean ≦0.2)”. Moreover, the A2.1 Binding with A2.1 HLA molecules is 0.0070.

For the compound YVMAGVGSPY [Peptide 9012.0152], the IC50 against HLA-A1 (A*0101) was 122 nM; at A*2601 it was 1.7 nM; against A*2902, 3.4 nM; against A*3002 it was 12 nM.

For the compound E7.85/1088.08 (GTLGIVCPI), the “Immunogenicity Experiment 2” value in assay [1] is recorded as “—** (key: —: a dash indicates _Lytic Units with a geometric mean ≦0.2)”. This compound also returned an A2.1 Binding with A2.1 HLA molecules of 0.021.

With ATSPAFDNLYY [Peptide 9012.0188], the IC50 was 4.9 nM against HLA-A1 (A*0101), 41 nM on A*2601, 9.4 nM against A*2902 and 0.9 nM on A*3002.

(Values after US9340577B2, “HLA binding motifs and peptides and their uses” (priority 1992, dated 2016).)
